The target of assay [1] is T1, C-C chemokine receptor type 4 (Homo sapiens, UniProt P51679).
T1 sequence (P51679 whole entry): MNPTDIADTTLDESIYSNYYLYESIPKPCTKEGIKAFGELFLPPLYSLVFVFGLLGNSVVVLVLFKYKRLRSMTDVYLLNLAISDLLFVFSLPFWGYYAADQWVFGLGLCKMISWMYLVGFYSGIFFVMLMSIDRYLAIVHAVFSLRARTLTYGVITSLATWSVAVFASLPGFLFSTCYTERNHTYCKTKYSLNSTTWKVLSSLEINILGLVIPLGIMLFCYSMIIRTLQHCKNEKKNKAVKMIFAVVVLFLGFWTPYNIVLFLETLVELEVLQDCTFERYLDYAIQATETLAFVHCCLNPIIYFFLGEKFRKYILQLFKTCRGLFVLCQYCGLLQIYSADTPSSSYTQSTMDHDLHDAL
Briefly: Displacement of […]CCL22 from human CCR4 receptor by scintillation proximity assay. In general terms: In a scintillation proximity assay essentially only radioactivity close to the scintillant gives light.

Another assay deals with Mus musculus. Briefly: Antiinflammatory activity against oxazolone-induced contact hypersensitivity in acute dermatitis BALB/c mouse model assessed as inhibition of ear swelling at 30 mg/kg, sc administered twice daily before 0.5 hrs and after 8 hrs of oxazolone challenge assessed after 24 hrs. Type of assay: functional. As to conditions: route subcutaneous.
Assay [2] has as its target T1, C-C chemokine receptor type 4. Briefly: Antagonist activity at human CCR4 receptor by [35S]GTPgammaS binding assay. The assay is classed as functional.
For assay [3], the target named is T2, C-C chemokine receptor type 4 (Homo sapiens) (UniProt P51679).
T2 sequence (whole entry): T1 sequence (P51679 whole entry)
The experiment in a line: Antagonist activity at human CCR4 receptor assessed as inhibition of CCL22-induced chemotaxis at 1 uM by bioluminescent assay. The assay is classed as functional.

Assay [4] concerns the target T3, C-C chemokine receptor type 4 (Mus musculus) (UniProt P51680).
T3 sequence (whole entry): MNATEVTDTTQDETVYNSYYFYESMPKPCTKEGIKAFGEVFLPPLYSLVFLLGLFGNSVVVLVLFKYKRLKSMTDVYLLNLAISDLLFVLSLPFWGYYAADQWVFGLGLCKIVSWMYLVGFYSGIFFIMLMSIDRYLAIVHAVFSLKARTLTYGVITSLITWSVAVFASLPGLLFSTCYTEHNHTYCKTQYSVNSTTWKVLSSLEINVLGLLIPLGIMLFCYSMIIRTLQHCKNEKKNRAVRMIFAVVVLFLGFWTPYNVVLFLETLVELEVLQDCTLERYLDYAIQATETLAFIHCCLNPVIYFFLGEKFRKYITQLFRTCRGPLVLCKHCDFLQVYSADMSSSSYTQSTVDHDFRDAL
The experiment in a line: Antagonist activity at mouse CCR4 receptor assessed as inhibition of CCL22-induced chemotaxis at 1 uM by bioluminescent assay. Type of assay: functional.

On to `COc1cc2nc(N3CCC(N4CCCC4)CC3)nc(Nc3ccc(Cl)cc3)c2cc1OC`, for which the figures for the IC50 in assay [1] and in assay [2] were 150 nM and 24 nM, respectively. Also, the inhibition in vivo at 30 mg/kg with Mus musculus was found to be 42.5%.

Regarding `COc1cc2nc(N3CCCN(CCN4CCCCC4)CC3)nc(Nc3ccc(Cl)cc3)c2cc1OC`, the IC50 in assay [2] was 130 nM.

With `COc1cc2nc(N3CCC(N4CCCC4)CC3)nc(Nc3ccc(F)cc3)c2cc1OC`, the IC50 in assay [2] worked out at 31 nM.

Take `CCN(CC)CCN1CCCN(c2nc(Nc3ccc(Cl)cc3)c3cc(OC)c(OC)cc3n2)CC1`: the inhibition in assay [3] came out at 15%; in assay [4] it was 42%. In assay [2], this compound displayed an IC50 of 92 nM.

In assay [2], `COc1cc2nc(N3CCCN(CCN4CCCC4)CC3)nc(Nc3ccc(Cl)cc3)c2cc1OC` registered a half-maximal inhibitory concentration (IC50) of 150 nM.

Compound `COc1cc2nc(N3CCCN(C4CCCCC4)CC3)nc(Nc3ccc(Cl)cc3)c2cc1OC` came in with an IC50 in assay [2] of 550 nM.

On to `COc1cc2nc(N3CCC(N(C)CCO)CC3)nc(Nc3ccc(Cl)cc3)c2cc1OC`, for which the inhibition in assay [3] is 47%. Besides, the IC50 in assay [2] is 98 nM.

`COc1cc2nc(N3CCC(N4CCCC4)CC3)nc(Nc3ccc(F)c(F)c3)c2cc1OC` showed an IC50 in assay [2] of 25 nM.

As for `COc1cc2nc(N3CCC(N4CCCC4)CC3)nc(Nc3cccc(Br)c3)c2cc1OC`, the values for the inhibition in assay [3] and in assay [4] were 36% and 11%, respectively. Further, the IC50 in assay [1] stood at 510 nM; in assay [2], 220 nM.

On to `COc1cc2nc(N3CCC(N(C)CCCCO)CC3)nc(Nc3ccc(Cl)cc3)c2cc1OC`, for which the inhibition in assay [4] came out at 42%. In assay [2], this compound had an IC50 of 61 nM.

For `COc1cc2nc(N3CCC(N(C)CCCO)CC3)nc(Nc3ccc(Cl)cc3)c2cc1OC`, the inhibition in assay [4] worked out at 32%. This compound came in with an IC50 in assay [2] of 43 nM.

A word on the IC50: it is the concentration needed to halve the response being measured. For orientation: inhibition in vivo means the change of the read-out against control, counted positive when it falls. By inhibition is commonly meant how much of the control response was suppressed.

(Values after ChEMBL document CHEMBL1139410, “Potent CCR4 antagonists: synthesis, evaluation, and docking study of 2,4-diaminoquinazolines” (Bioorg Med Chem, 2008).)
